Organism: Rattus norvegicus
Assay: DrugMatrix - Regimen: Daily Repeat
Assay type: toxicity, organism-based, Sprague-Dawley
Parameters: regimen Daily Repeat, gender Male, age 6-8 weeks
Conditions: in vivo, po, route oral GAVAGE, vehicle 100 % WATER; for ABSOLUTE BASOPHIL / ABSOLUTE EOSINOPHIL / ABSOLUTE LYMPHOCYTE / ABSOLUTE MONOCYTE / ABSOLUTE SEGMENTED NEUTROPHIL / BASOPHIL / EOSINOPHIL / ERYTHROCYTE COUNT / HEMATOCRIT / HEMOGLOBIN / LEUKOCYTE COUNT / LYMPHOCYTE / MEAN CORPUSCULAR HEMOGLOBIN / MEAN CORPUSCULAR HEMOGLOBIN CONCENTRATION / MEAN CORPUSCULAR VOLUME / MONOCYTE / NEUTROPHIL / NUCLEATED RED BLOOD CELLS / PLATELET COUNT: tissue Blood; for ALANINE AMINOTRANSFERASE / ALBUMIN / ALKALINE PHOSPHATASE / ASPARTATE AMINOTRANSFERASE / BLOOD UREA NITROGEN / CARBON DIOXIDE / CHLORIDE / CHOLESTEROL / CREATINE PHOSPHOKINASE / CREATININE / GLUCOSE / LACTATE DEHYDROGENASE / LIPASE / PHOSPHORUS / POTASSIUM / SODIUM / TOTAL BILIRUBIN / TOTAL PROTEIN / URIC ACID: tissue Plasma
[1] = 175 mg/kg, 120 h, dose level High, time 5 day
[2] = […], 72 h, dose 5.8 mg/Kg, dose level Low, time 3 day
[3] = […], 120 h, dose 5.8 mg/Kg, dose level Low, time 5 day

O=c1[nH]c(=O)n(C2CCCO2)cc1F (centres undefined) [TEGAFUR]
ABSOLUTE BASOPHIL [1]: 0 CELLS/uL
ABSOLUTE EOSINOPHIL [1]: 47 CELLS/uL
ABSOLUTE LYMPHOCYTE [1]: 11945 CELLS/uL
ABSOLUTE MONOCYTE [1]: 125.33 CELLS/uL
ABSOLUTE SEGMENTED NEUTROPHIL [1]: 416 CELLS/uL
BASOPHIL [1]: 0%
EOSINOPHIL [1]: 0.33%
ERYTHROCYTE COUNT [1]: 6.13 x10E6/uL
HEMATOCRIT [1]: 37.33%
HEMOGLOBIN [1]: 14.9 G/DL
LEUKOCYTE COUNT [1]: 12.53 x10E3/uL
LYMPHOCYTE [1]: 95.33%
MEAN CORPUSCULAR HEMOGLOBIN [1]: 24.33 pg
MEAN CORPUSCULAR HEMOGLOBIN CONCENTRATION [1]: 39.9 G/DL
MEAN CORPUSCULAR VOLUME [1]: 60.9 fL
MONOCYTE [1]: 1%
NEUTROPHIL [1]: 3.33%
NUCLEATED RED BLOOD CELLS [1]: 0 /100WBC
PLATELET COUNT [1]: 1252.33 x10E3/uL
ALANINE AMINOTRANSFERASE [1]: 40 u/L
ALBUMIN [1]: 4.43 G/DL
ALKALINE PHOSPHATASE [1]: 333 u/L
ASPARTATE AMINOTRANSFERASE [1]: 113 u/L
BLOOD UREA NITROGEN [1]: 19.67 mg/dL
CARBON DIOXIDE [1]: 26 mmol/L
CHLORIDE [1]: 106 MEQ/L
CHOLESTEROL [1]: 80.67 mg/dL
CREATINE PHOSPHOKINASE [1]: 419.33 u/L
CREATININE [1]: 0.24 mg/dL
GLUCOSE [1]: 146.33 mg/dL
LACTATE DEHYDROGENASE [1]: 797.67 u/L
LIPASE [1]: 9.33 u/L
PHOSPHORUS [1]: 10.2 mg/dL
POTASSIUM [1]: 5.48 MEQ/L
SODIUM [1]: 149.83 MEQ/L
TOTAL BILIRUBIN [1]: 0.17 mg/dL
TOTAL PROTEIN [1]: 6.13 G/DL
URIC ACID [1]: 1.43 mg/dL
ABSOLUTE BASOPHIL [2]: 0 CELLS/uL
ABSOLUTE EOSINOPHIL [2]: 50 CELLS/uL
ABSOLUTE LYMPHOCYTE [2]: 13948.67 CELLS/uL
ABSOLUTE MONOCYTE [2]: 166.67 CELLS/uL
ABSOLUTE SEGMENTED NEUTROPHIL [2]: 1434.67 CELLS/uL
BASOPHIL [2]: 0%
EOSINOPHIL [2]: 0.33%
ERYTHROCYTE COUNT [2]: 5.51 x10E6/uL
HEMATOCRIT [2]: 34.4%
HEMOGLOBIN [2]: 13.43 G/DL
LEUKOCYTE COUNT [2]: 15.6 x10E3/uL
LYMPHOCYTE [2]: 89.67%
MEAN CORPUSCULAR HEMOGLOBIN [2]: 24.37 pg
MEAN CORPUSCULAR HEMOGLOBIN CONCENTRATION [2]: 39.03 G/DL
MEAN CORPUSCULAR VOLUME [2]: 62.43 fL
MONOCYTE [2]: 1%
NEUTROPHIL [2]: 9%
NUCLEATED RED BLOOD CELLS [2]: 0 /100WBC
PLATELET COUNT [2]: 1387 x10E3/uL
ALANINE AMINOTRANSFERASE [2]: 47.33 u/L
ALBUMIN [2]: 4.23 G/DL
ALKALINE PHOSPHATASE [2]: 325.33 u/L
ASPARTATE AMINOTRANSFERASE [2]: 100.33 u/L
BLOOD UREA NITROGEN [2]: 15.33 mg/dL
CARBON DIOXIDE [2]: 28.33 mmol/L
CHLORIDE [2]: 100.33 MEQ/L
CHOLESTEROL [2]: 86 mg/dL
CREATINE PHOSPHOKINASE [2]: 626 u/L
CREATININE [2]: 0.22 mg/dL
GLUCOSE [2]: 138.67 mg/dL
LACTATE DEHYDROGENASE [2]: 764.67 u/L
LIPASE [2]: 9.67 u/L
PHOSPHORUS [2]: 12.43 mg/dL
POTASSIUM [2]: 6.48 MEQ/L
SODIUM [2]: 143.37 MEQ/L
TOTAL BILIRUBIN [2]: 0.17 mg/dL
TOTAL PROTEIN [2]: 5.97 G/DL
URIC ACID [2]: 1.57 mg/dL
ABSOLUTE BASOPHIL [3]: 0 CELLS/uL
ABSOLUTE EOSINOPHIL [3]: 53.67 CELLS/uL
ABSOLUTE LYMPHOCYTE [3]: 12194.67 CELLS/uL
ABSOLUTE MONOCYTE [3]: 43 CELLS/uL
ABSOLUTE SEGMENTED NEUTROPHIL [3]: 1808.67 CELLS/uL
BASOPHIL [3]: 0%
EOSINOPHIL [3]: 0.33%
ERYTHROCYTE COUNT [3]: 5.38 x10E6/uL
HEMATOCRIT [3]: 32.9%
HEMOGLOBIN [3]: 13.1 G/DL
LEUKOCYTE COUNT [3]: 14.1 x10E3/uL
LYMPHOCYTE [3]: 86.67%
MEAN CORPUSCULAR HEMOGLOBIN [3]: 24.33 pg
MEAN CORPUSCULAR HEMOGLOBIN CONCENTRATION [3]: 39.83 G/DL
MEAN CORPUSCULAR VOLUME [3]: 61.1 fL
MONOCYTE [3]: 0.33%
NEUTROPHIL [3]: 12.67%
NUCLEATED RED BLOOD CELLS [3]: 0.33 /100WBC
PLATELET COUNT [3]: 1303.67 x10E3/uL
ALANINE AMINOTRANSFERASE [3]: 51 u/L
ALBUMIN [3]: 4.13 G/DL
ALKALINE PHOSPHATASE [3]: 305.67 u/L
ASPARTATE AMINOTRANSFERASE [3]: 93.67 u/L
BLOOD UREA NITROGEN [3]: 16 mg/dL
CARBON DIOXIDE [3]: 24.33 mmol/L
CHLORIDE [3]: 102.67 MEQ/L
CHOLESTEROL [3]: 77.33 mg/dL
CREATINE PHOSPHOKINASE [3]: 365 u/L
CREATININE [3]: 0.22 mg/dL
GLUCOSE [3]: 140 mg/dL
LACTATE DEHYDROGENASE [3]: 424.33 u/L
LIPASE [3]: 9.33 u/L
PHOSPHORUS [3]: 11.73 mg/dL
POTASSIUM [3]: 6.27 MEQ/L
SODIUM [3]: 142.73 MEQ/L
TOTAL BILIRUBIN [3]: 0.27 mg/dL
TOTAL PROTEIN [3]: 5.97 G/DL
URIC ACID [3]: 1.6 mg/dL
